# Literature values in patent US20100197704A1, “PHARMACEUTICAL COMPOSITIONS AND METHOD FOR TREATING ACUTE MANIA” (priority 2007, published 2010).
# Columns and labels:
# Conditions in all cases: cited from earlier work
# [1] = biological target: T1, serotonin 5-HT1A receptors (Homo sapiens, UniProt P08908)
# T1 sequence (P08908 1-422): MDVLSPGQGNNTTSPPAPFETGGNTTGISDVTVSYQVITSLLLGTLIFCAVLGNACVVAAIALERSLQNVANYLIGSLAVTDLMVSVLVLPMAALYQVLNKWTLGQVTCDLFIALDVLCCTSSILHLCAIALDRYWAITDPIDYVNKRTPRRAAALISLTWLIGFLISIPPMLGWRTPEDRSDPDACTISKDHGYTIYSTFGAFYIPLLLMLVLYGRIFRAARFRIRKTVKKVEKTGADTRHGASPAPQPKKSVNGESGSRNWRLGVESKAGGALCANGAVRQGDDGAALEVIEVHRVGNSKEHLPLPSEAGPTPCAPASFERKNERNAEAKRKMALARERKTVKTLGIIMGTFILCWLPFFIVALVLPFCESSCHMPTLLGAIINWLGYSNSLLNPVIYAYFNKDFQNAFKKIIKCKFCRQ
# [2] = biological target: histamine H1 (Homo sapiens, UniProt P35367)
# Sequence of histamine H1 (P35367 whole entry): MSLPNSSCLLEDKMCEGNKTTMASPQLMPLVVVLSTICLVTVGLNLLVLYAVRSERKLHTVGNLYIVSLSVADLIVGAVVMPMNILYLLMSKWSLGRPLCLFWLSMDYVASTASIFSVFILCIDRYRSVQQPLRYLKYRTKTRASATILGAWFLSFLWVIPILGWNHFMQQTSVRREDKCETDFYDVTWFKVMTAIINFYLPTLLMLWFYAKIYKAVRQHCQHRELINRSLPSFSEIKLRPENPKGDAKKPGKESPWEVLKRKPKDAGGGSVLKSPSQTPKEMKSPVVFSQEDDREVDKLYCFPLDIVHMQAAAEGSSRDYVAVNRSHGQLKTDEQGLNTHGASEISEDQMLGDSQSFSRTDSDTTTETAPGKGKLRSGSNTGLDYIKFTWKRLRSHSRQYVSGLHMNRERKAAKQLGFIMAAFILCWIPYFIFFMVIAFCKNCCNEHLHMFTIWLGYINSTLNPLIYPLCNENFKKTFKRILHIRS
# [3] = biological target: presynaptic D2 receptors (Homo sapiens, UniProt P14416)
# Sequence of presynaptic D2 receptors (P14416 whole entry): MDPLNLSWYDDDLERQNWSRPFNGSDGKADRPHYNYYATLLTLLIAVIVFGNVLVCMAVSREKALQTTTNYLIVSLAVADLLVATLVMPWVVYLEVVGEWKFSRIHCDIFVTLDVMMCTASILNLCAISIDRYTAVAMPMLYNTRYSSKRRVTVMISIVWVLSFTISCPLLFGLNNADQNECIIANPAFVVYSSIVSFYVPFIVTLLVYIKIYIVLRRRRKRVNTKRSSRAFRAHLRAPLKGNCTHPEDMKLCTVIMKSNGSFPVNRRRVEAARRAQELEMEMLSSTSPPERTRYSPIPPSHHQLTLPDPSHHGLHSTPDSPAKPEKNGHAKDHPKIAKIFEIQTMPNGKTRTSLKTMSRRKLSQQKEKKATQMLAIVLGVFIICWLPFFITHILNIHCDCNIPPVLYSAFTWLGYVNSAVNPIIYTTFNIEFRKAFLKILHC
# [4] = biological target: T1, serotonin 5-HT1A receptors; remark: listed apart in the source
# [5] = system: adrenergic receptor sites
# [6] = biological target: T2, 5-HT2C (Homo sapiens, UniProt P28335)
# T2 sequence (P28335 33-458): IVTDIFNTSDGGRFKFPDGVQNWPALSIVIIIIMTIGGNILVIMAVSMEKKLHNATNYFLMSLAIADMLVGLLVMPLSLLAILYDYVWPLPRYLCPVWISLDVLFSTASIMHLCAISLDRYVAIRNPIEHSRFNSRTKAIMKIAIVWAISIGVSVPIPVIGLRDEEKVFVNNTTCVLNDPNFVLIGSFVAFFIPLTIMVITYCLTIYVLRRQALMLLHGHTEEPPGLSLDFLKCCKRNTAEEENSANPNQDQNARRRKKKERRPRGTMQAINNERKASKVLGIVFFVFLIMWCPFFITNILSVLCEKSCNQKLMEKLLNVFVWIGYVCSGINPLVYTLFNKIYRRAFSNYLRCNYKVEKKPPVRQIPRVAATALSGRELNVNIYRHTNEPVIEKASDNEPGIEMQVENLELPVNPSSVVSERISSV
smiles,measurement,setting,value
"CN(C)C(=O)NC1CCC(CCN2CCN(c3cccc(Cl)c3Cl)CC2)CC1.Cl (stereo not drawn) [trans-4-{2-[4-(2,3-dichlorophenyl)-piperazin-1-yl]-ethyl}-N,N-dimethylcarbamoyl-cyclohexylamine hydrochloride]",functional activity at serotonin 5-HT1A receptors,[1],partial agonist
same,potency at histamine H1 receptor site,[2],low potency
same,activity on biosynthesis (and release) modulating presynaptic D2 receptors,[3]; depending on the functional status of the particular dopaminergic system,both (partial) agonist and antagonist activity
same,in vivo mode of action on the dopamine system,"[3]; in vivo, preferential dopaminergic actions in the limbic regions",dopamine system stabilizer
same,affinity for serotonin 5-HT1A receptors,[4],considerable affinity
same,potency at adrenergic receptor sites,[5],low potency
same,potency at 5-HT2C receptor site,[6],low potency
